Molecular target: T1, chicken gizzard smooth muscle myosin subfragment-1 chemically crosslinked to cardiac or skeletal actin (Gallus gallus, UniProt P10587)
T1 construct: chicken gizzard smooth muscle myosin subfragment-1; from tissue; host or cells: chicken gizzard
Test: Smooth muscle myosin ATPase dose response assay (pyruvate kinase/horseradish peroxidase/pyruvate oxidase-coupled, amplex red fluorescence)
Type: biochemical
Details: read-out: IC50 Arithmetic Mean
Summary of the method: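 Readout is amplex red signal from coupled ATPase of actin-crosslinked gizzard myosin S1 (0.15 mM ATP, 12 mM K-PIPES, pH 7.00). IC50 is the half-maximal activity point of a four-parameter Hill fit.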

T1 sequence (P02607 2-151): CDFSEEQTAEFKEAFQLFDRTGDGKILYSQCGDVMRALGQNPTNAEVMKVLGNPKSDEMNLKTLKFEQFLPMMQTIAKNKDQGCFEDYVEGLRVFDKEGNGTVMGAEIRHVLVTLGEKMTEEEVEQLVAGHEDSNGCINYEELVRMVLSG
T1 sequence (P10587 84-789): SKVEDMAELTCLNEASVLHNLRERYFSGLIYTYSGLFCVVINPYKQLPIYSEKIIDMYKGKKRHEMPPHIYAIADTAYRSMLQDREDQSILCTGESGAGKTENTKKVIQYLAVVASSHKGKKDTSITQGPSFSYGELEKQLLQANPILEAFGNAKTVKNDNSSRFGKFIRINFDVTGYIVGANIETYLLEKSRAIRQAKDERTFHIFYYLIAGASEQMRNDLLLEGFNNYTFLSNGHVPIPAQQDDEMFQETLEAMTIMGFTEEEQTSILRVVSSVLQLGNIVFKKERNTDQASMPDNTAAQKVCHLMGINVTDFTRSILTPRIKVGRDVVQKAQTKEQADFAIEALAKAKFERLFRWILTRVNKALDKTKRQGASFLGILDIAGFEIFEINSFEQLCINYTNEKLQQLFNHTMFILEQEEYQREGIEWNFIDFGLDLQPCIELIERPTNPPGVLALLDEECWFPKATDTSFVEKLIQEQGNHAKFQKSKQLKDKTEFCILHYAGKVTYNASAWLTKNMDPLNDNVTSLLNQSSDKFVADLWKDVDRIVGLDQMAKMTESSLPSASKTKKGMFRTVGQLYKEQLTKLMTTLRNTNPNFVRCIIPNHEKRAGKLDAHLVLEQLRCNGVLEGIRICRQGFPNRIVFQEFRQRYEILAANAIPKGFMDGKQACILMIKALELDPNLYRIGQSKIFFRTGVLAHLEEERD

Row | SMILES | IC50 [µM]
1 | N#Cc1ccccc1-c1ccc(C(=O)NCc2ccc(C(F)(F)F)cn2)c(NCCc2cccc(F)c2)n1 [(6-(2-cyanophenyl)-2-{[2-(3-fluorophenyl)ethyl]amino}(3-pyridyl))-N-{[5-(trifluoromethyl)(2-pyridyl)]methyl}carboxamide] | 1.5
2 | N#Cc1ccccc1-c1ccc(C(=O)NCc2cccc(CO)n2)c(NCCc2cccc(F)c2)n1 [(6-(2-cyanophenyl)-2-{[2-(3-fluorophenyl)ethyl]amino}(3-pyridyl))-N-{[6-(hydroxymethyl)(2-pyridyl)]methyl}carboxamide] | 0.037
3 | CNc1ccc(CNC(=O)c2ccc(-c3ccccc3C#N)nc2NCCc2cccc(F)c2)cn1 [(6-(2-cyanophenyl)-2-{[2-(3-fluorophenyl)ethyl]amino}(3-pyridyl))-N-{[6-(methylamino)(3-pyridyl)]methyl}carboxamide] | 0.298
4 | N#Cc1ccccc1-c1ccc(C(=O)NCc2cccc(C(F)(F)F)n2)c(NCCc2cccc(F)c2)n1 [(6-(2-cyanophenyl)-2-{[2-(3-fluorophenyl)ethyl]amino}(3-pyridyl))-N-{[6-(trifluoromethyl)(2-pyridyl)]methyl}carboxamide] | 0.604
5 | Cc1cc(-c2ccccc2C#N)nc(NCCc2cccc(F)c2)c1C(=O)NCc1cccnc1 [(6-(2-cyanophenyl)-2-{[2-(3-fluorophenyl)ethyl]amino}-4-methyl(3-pyridyl))-N-(3-pyridylmethyl)carboxamide] | 1.08
6 | O=C(NCc1cccnc1)c1ccc(-c2ccccc2F)nc1NCCc1cccc(F)c1 [(6-(2-fluorophenyl)-2-{[2-(3-fluorophenyl)ethyl]amino}(3-pyridyl))-N-(3-pyridylmethyl)carboxamide] | 0.139
7 | O=C(NCc1cccnc1)c1ccc(-c2ccc(F)c(F)c2)nc1NCCc1cccc(F)c1 [(6-(3,4-difluorophenyl)-2-{[2-(3-fluorophenyl)ethyl]amino}(3-pyridyl))-N-(3-pyridylmethyl)carboxamide] | 0.534
8 | Cn1cc(-c2ccc(C(=O)NCc3cccnc3)c(NCCc3cccc(F)c3)n2)c(C#N)n1 [(6-(3-cyano-1-methylpyrazol-4-yl)-2-{[2-(3-fluorophenyl)ethyl]amino}(3-pyridyl))-N-(3-pyridylmethyl)carboxamide] | 0.047
9 | O=C(NCc1cccnc1)c1ccc(-c2cccc(F)c2)nc1NCCc1cccc(F)c1 [(6-(3-fluorophenyl)-2-{[2-(3-fluorophenyl)ethyl]amino}(3-pyridyl))-N-(3-pyridylmethyl)carboxamide] | 0.157
10 | N#Cc1cscc1-c1ccc(C(=O)NCc2cccnc2)c(NCCc2cccc(F)c2)n1 [(6-(4-cyano(3-thienyl))-2-{[2-(3-fluorophenyl)ethyl]amino}(3-pyridyl))-N-(3-pyridylmethyl)carboxamide] | 0.014
11 | O=C(NCc1cccnc1)c1ccc(-c2ccc(F)cc2)nc1NCCc1cccc(F)c1 [(6-(4-fluorophenyl)-2-{[2-(3-fluorophenyl)ethyl]amino}(3-pyridyl))-N-(3-pyridylmethyl)carboxamide] | 0.198
12 | CC(=O)c1ccc(-c2ccc(C(=O)NCc3cccnc3)c(NCCc3cccc(F)c3)n2)s1 [(6-(5-acetyl(2-thienyl))-2-{[2-(3-fluorophenyl)ethyl]amino}(3-pyridyl))-N-(3-pyridylmethyl)carboxamide] | 0.178
13 | N#Cc1ccc(-c2ccc(C(=O)NCc3cccnc3)c(NCCc3cccc(F)c3)n2)s1 [(6-(5-cyano(2-thienyl))-2-{[2-(3-fluorophenyl)ethyl]amino}(3-pyridyl))-N-(3-pyridylmethyl)carboxamide] | 0.28
14 | Cn1ncc(-c2ccc(C(=O)NCc3cccnc3)c(NCCc3cccc(F)c3)n2)c1C#N [(6-(5-cyano-1-methylpyrazol-4-yl)-2-{[2-(3-fluorophenyl)ethyl]amino}(3-pyridyl))-N-(3-pyridylmethyl)carboxamide] | 0.02
15 | N#Cc1[nH]ncc1-c1ccc(C(=O)NCc2cccnc2)c(NCCc2cccc(F)c2)n1 [(6-(5-cyanopyrazol-4-yl)-2-{[2-(3-fluorophenyl)ethyl]amino}(3-pyridyl))-N-(3-pyridylmethyl)carboxamide] | 0.105
16 | N#CCc1ccccc1-c1ccc(C(=O)NCc2cccnc2)c(NCCc2cccc(F)c2)n1 [(6-[2-(cyanomethyl)phenyl]-2-{[2-(3-fluorophenyl)ethyl]amino}(3-pyridyl))-N-(3-pyridylmethyl)carboxamide] | 16.4
17 | O=C(NCc1cccnc1)c1ccc(-c2cc(CO)ccc2Cl)nc1NCCc1cccc(F)c1 [(6-[2-chloro-5-(hydroxymethyl)phenyl]-2-{[2-(3-fluorophenyl)ethyl]amino}(3-pyridyl))-N-(3-pyridylmethyl)carboxamide] | 1.19
18 | NCc1ccsc1-c1ccc(C(=O)NCc2cccnc2)c(NCCc2cccc(F)c2)n1 [(6-[3-(aminomethyl)(2-thienyl)]-2-{[2-(3-fluorophenyl)ethyl]amino}(3-pyridyl))-N-(3-pyridylmethyl)carboxamide] | 55.7
19 | NCc1ccc(-c2ccc(C(=O)NCc3cccnc3)c(NCCc3cccc(F)c3)n2)s1 [(6-[5-(aminomethyl)(2-thienyl)]-2-{[2-(3-fluorophenyl)ethyl]amino}(3-pyridyl))-N-(3-pyridylmethyl)carboxamide] | 2.7

Row | SMILES | IC50 [µM]
20 | CN(C)C(=O)CNC(=O)c1ccc(-c2ccccc2)nc1NCCc1ccccc1 [N,N-dimethyl-2-({6-phenyl-2-[(2-phenylethyl)amino](3-pyridyl)}carbonylamino)acetamide] | 30.3
21 | O=C(NCc1ncco1)c1ccc(-c2ccccc2)nc1NCCc1ccccn1 [N-(1,3-oxazol-2-ylmethyl){6-phenyl-2-[(2-(2-pyridyl)ethyl)amino](3-pyridyl)}carboxamide] | 4.9
22 | Cn1cc(-c2nc(NCCc3cccc(F)c3)c(C(=O)NCC(O)CO)cc2F)cn1 (stereo not shown) [N-(2,3-dihydroxypropyl)(5-fluoro-2-{[2-(3-fluorophenyl)ethyl]amino}-6-(1-methylpyrazol-4-yl)(3-pyridyl))carboxamide] | 0.307
23 | O=C(NCC(O)CO)c1cc(F)c(-c2cn[nH]c2)nc1NCCc1cccc(F)c1 (stereo not shown) [N-(2,3-dihydroxypropyl)(5-fluoro-2-{[2-(3-fluorophenyl)ethyl]amino}-6-pyrazol-4-yl(3-pyridyl))carboxamide] | 0.448
24 | CC(C)(N)CNC(=O)c1ccc(-c2ccccc2C#N)nc1NCCc1cccc(F)c1 [N-(2-amino-2-methylpropyl)(6-(2-cyanophenyl)-2-{[2-(3-fluorophenyl)ethyl]amino}(3-pyridyl))carboxamide] | 0.666
25 | N#Cc1ccccc1-c1ccc(C(=O)NCCN)c(NCCc2cccc(F)c2)n1 [N-(2-aminoethyl)(6-(2-cyanophenyl)-2-{[2-(3-fluorophenyl)ethyl]amino}(3-pyridyl))carboxamide] | 2.64
26 | NC(=O)CCNC(=O)c1ccc(-c2ccc(CO)s2)nc1NCCc1cccc(F)c1 [N-(2-carbamoylethyl)(2-{[2-(3-fluorophenyl)ethyl]amino}-6-[5-(hydroxymethyl)(2-thienyl)](3-pyridyl))carboxamide] | 0.549
27 | N#Cc1ccccc1-c1ccc(C(=O)NCCC(N)=O)c(NCCc2cccc(F)c2)n1 [N-(2-carbamoylethyl)(6-(2-cyanophenyl)-2-{[2-(3-fluorophenyl)ethyl]amino}(3-pyridyl))carboxamide] | 0.099
28 | N#Cc1ccccc1-c1ccc(C(=O)NCC(=O)NCCC(N)=O)c(NCCc2cccc(F)c2)n1 [N-(2-carbamoylethyl)-2-[(6-(2-cyanophenyl)-2-{[2-(3-fluorophenyl)ethyl]amino}(3-pyridyl))carbonylamino]acetamide] | 12.2
29 | CC(C)(CNC(=O)c1ccc(-c2ccccc2C#N)nc1NCCc1cccc(F)c1)NC=O [N-(2-carbonylamino-2-methylpropyl)(6-(2-cyanophenyl)-2-{[2-(3-fluorophenyl)ethyl]amino}(3-pyridyl))carboxamide] | 0.151
30 | N#Cc1ccccc1-c1ccc(C(=O)NCCNS(=O)(=O)CCN)c(NCCc2cccc(F)c2)n1 [N-(2-{[(2-aminoethyl)sulfonyl]amino}ethyl)(6-(2-cyanophenyl)-2-{[2-(3-fluorophenyl)ethyl]amino}(3-pyridyl))carboxamide] | 1.55
31 | N#Cc1ccccc1-c1ccc(C(=O)NC(CCN)C(N)=O)c(NCCc2cccc(F)c2)n1 (stereo not shown) [N-(3-amino-1-carbamoylpropyl)(6-(2-cyanophenyl)-2-{[2-(3-fluorophenyl)ethyl]amino}(3-pyridyl))carboxamide] | 1.91
32 | N#Cc1ccccc1-c1ccc(C(=O)NCC(CN)C(N)=O)c(NCCc2cccc(F)c2)n1 (stereo not shown) [N-(3-amino-2-carbamoylpropyl)(6-(2-cyanophenyl)-2-{[2-(3-fluorophenyl)ethyl]amino}(3-pyridyl))carboxamide] | 6.65
33 | N#Cc1ccccc1-c1ccc(C(=O)NCC(O)CN)c(NCCc2cccc(F)c2)n1 (stereo not shown) [N-(3-amino-2-hydroxypropyl)(6-(2-cyanophenyl)-2-{[2-(3-fluorophenyl)ethyl]amino}(3-pyridyl))carboxamide] | 4.81
34 | Cn1cc(-c2nc(NCCc3cccc(F)c3)c(C(=O)NCCCN)cc2F)cn1 [N-(3-aminopropyl)(5-fluoro-2-{[2-(3-fluorophenyl)ethyl]amino}-6-(1-methylpyrazol-4-yl)(3-pyridyl))carboxamide] | 3.96
35 | N#Cc1ccccc1-c1ccc(C(=O)NCCCN)c(NCCc2cccc(F)c2)n1 [N-(3-aminopropyl)(6-(2-cyanophenyl)-2-{[2-(3-fluorophenyl)ethyl]amino}(3-pyridyl))carboxamide] | 0.994
36 | N#Cc1ccccc1-c1ccc(C(=O)NCCCC(N)=O)c(NCCc2cccc(F)c2)n1 [N-(3-carbamoylpropyl)(6-(2-cyanophenyl)-2-{[2-(3-fluorophenyl)ethyl]amino}(3-pyridyl))carboxamide] | 0.185
37 | O=C(NCc1cccnc1)c1ccc(-c2ccccn2)nc1NCCc1ccccn1 [N-(3-pyridylmethyl){6-(2-pyridyl)-2-[(2-(2-pyridyl)ethyl)amino](3-pyridyl)}carboxamide] | 5.38

Reference: patent US7932270B2 (Cytokinetics, Inc., priority 2006, dated 2011)
